Experimental data taken from PMC10106456 (Communications Biology, 2023).
Several values for one entry are separate records, joined by “and”; a condition that tells them apart may be missing. Equal entries are not always repeated. Where two headings read alike, the source gives them in different places.

Legend:
[1] = test system: E. coli DH5αZ1 + pZE24 (empty); test: Microbroth dilution antibiotic susceptibility test (MIC); assay type: cell-based; settings: Escherichia coli, 20 h, drug alone
Method: (§1) For high expression, 1 mM IPTG fully relieves repression by LacI[44] thus only IPTG was used in whole-cell tests. Chemically-competent E. coli DH5αZ1 (Expressys) was transformed with these pZE24 constructs by heat shock. Minimum inhibitory concentrations (MICs) were measured as per Clinical and Laboratory Standards Institute (CLSI) guidelines. Substrates and inhibitors were dissolved in DMSO (20 mg/mL) then diluted to working concentrations in cation-adjusted Mueller-Hinton II broth supplemented with 50 μg/mL kanamycin (Supplementary Data 2). Antibiotic susceptibility testing panels were prepared in 96-well flat-bottom microplates (Corning) by two-fold serial dilution of the antibiotic of interest (Supplementary Data 3). […] Liquid cultures of each strain were grown to exponential phase then diluted to a standard concentration (OD600 = 0.0015, which is equivalent to double ~5 × 10^5 CFU/mL) and inoculated into each panel at a 1:1 ratio. […] Each strain-antibiotic/inhibitor combination was tested in triplicate, along with no-drug and no-cell controls. Inoculated panels were sealed with Breathe-Easy membranes (Sigma-Aldrich) and incubated at 37 °C for 20 h. MICs were scored by absorbance measurements at 600 nm (OD600) using the Synergy H1 microplate reader (Biotek Instruments, Inc).

[2] = test system: E. coli DH5αZ1 + pZE24-tet(X6); test: as above; assay type: cell-based; settings: Escherichia coli
Method: as §1

[3] = test system: E. coli DH5αZ1 + pZE24-tet(X7); test: as above; assay type: cell-based; settings: Escherichia coli, 20 h
Method: as §1

[4] = test system: E. coli expressing Tet(X6); assay type: cell-based; settings: pZE24-tetX6, panel concentrations in μg/mL per Supp. Data 3
Method: as §1

[5] = test system: E. coli DH5αZ1 pZE24-empty; test: Checkerboard whole cell inhibition assay (tetracycline + anhydrotetracycline); assay type: cell-based
Method: as §1

[6] = test system: E. coli expressing Tet(X7); test: as above; assay type: cell-based; settings: pZE24-tetX7, panel concentrations in μg/mL per Supp. Data 3
Method: as §1

Tet(X6) [7] = target: T1, Tet(X6) (Proteus genomosp. 6, UniProt A0A6I7DAX3); settings: for Slope (initial velocity of substrate degradation): trials 1-3, absorbance 400 nm (440 nm for aTC)
Method: All experiments were prepared open to air in non-degassed buffer solutions at room temperature. […] Initial enzyme velocities were determined by linear regression using Agilent Cary WinUV Software over the linear range of the reaction (typically between 0 to 1 min), plotted against the concentration of the substrate, and fitted to the Michaelis–Menten or allosteric sigmoidal nonlinear regression equations using GraphPad Prism 6.

Tet(X6) [8] = target: T1, Tet(X6); test: Apparent Tet(X6) inhibitor IC50 (optical absorbance assay); assay type: biochemical, Proteus genomospecies; settings: for IC50: Tet(X6); for Slope (velocity of substrate degradation in presence of aTC): trials 1-3
Method: All experiments were prepared open to air in non-degassed buffer solutions at room temperature. […] Initial enzyme velocities were determined by linear regression using Agilent Cary WinUV Software over the linear range of the reaction (typically between 0 to 1 min). The velocities were plotted against the logarithm of inhibitor concentration, and apparent IC50 values were determined using nonlinear regression analysis in GraphPad Prism v6. Each set of experiments included a no-TDase control reaction which was used as the full enzyme inhibition velocity and assigned to an inhibitor concentration of 1 × 10^15, as well as a no-inhibitor control which was assigned an inhibitor concentration of 1 × 10^–15.

Tet(X6) [9] = target: T1, Tet(X6); test: Substrate degradation by scanning optical absorbance spectroscopy; assay type: biochemical, Proteus genomospecies; settings: in the presence of Tet(X6), NADPH, and O2; 20 μM substrate, 2 h
Method: (§2) All in vitro kinetic assays were prepared open to air in non-degassed buffer solutions at room temperature. […] In vitro reactions were monitored by optical absorbance spectroscopy on an Agilent Cary 50 UV-visible spectrophotometer using polystyrene cuvettes. Reaction progress was monitored by optical absorbance spectroscopy (280−550 nm, 1 nm and 5 min intervals) over 2 h. […] The quenched samples were centrifuged (5000 rpm, 4 °C) for 5 min, and 600 μL of the resulting supernatant was mixed with an Fmoc-Ala internal standard (3.12 μM final concentration) and analyzed by LC-MS in positive ion mode (single trial). LC-MS was acquired using an Agilent 6130 single quadrupole instrument (ESI + ) with G1313 autosampler, G1315 diode array detector, and 1200 series solvent module with separation on a Phenomenex Gemini C18 column, 50 × 2 mm (5 um) fit with a guard column cassette. LCMS solvents were 0.1% formic acid in H2O (A) and 0.1% formic acid in acetonitrile (B). […] LCMS data were processed using ChemStation software version B.04.02 SP1. Extracted ion chromatograms (EICs) for the expected [M + H]^+ molecular ions corresponding to substrate and mono-hydroxylated product were normalized to the [M + H]^+ counts for an Fmoc-Ala internal standard.

Tet(X6) [10] = target: T1, Tet(X6); test: Substrate degradation by LC-MS (extracted ion counts); assay type: biochemical, Proteus genomospecies; settings: Tet(X6) reaction of aTC
Method: as §2

T1 sequence (A0A6I7DAX3 entry or part of it): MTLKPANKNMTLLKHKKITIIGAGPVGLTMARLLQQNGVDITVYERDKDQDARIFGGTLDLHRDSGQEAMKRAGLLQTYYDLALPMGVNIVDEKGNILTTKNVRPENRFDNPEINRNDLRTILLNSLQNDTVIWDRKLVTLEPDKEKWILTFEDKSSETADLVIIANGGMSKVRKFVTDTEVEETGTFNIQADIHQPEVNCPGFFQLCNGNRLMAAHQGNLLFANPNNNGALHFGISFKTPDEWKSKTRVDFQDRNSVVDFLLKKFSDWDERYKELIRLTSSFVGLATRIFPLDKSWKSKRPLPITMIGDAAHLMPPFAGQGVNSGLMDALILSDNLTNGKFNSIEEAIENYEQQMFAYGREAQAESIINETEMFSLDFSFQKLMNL

Cc1c2c(c(O)c3c(O)cccc13)C(=O)[C@]1(O)C(=O)C(C(N)=O)=C(O)[C@@H](N(C)C)[C@@H]1C2 [aTC, anhydrotetracycline]
MIC [1]: 4 µg/mL
MIC [2]: 32 µg/mL
MIC [3]: 8 µg/mL
ATC concentration inhibiting growth at fixed TET (Fig3a source data) ([4]; TET 0): 32
ATC concentration inhibiting growth at fixed TET (Fig3a source data) ([4]; TET 1): 32
ATC concentration inhibiting growth at fixed TET (Fig3a source data) ([4]; TET 2): 32
ATC concentration inhibiting growth at fixed TET (Fig3a source data) ([4]; TET 4): 32
ATC concentration inhibiting growth at fixed TET (Fig3a source data) ([4]; TET 8): 32
ATC concentration inhibiting growth at fixed TET (Fig3a source data) ([4]; TET 16): 16
ATC concentration inhibiting growth at fixed TET (Fig3a source data) ([4]; TET 32): 16
ATC concentration inhibiting growth at fixed TET (Fig3a source data) ([4]; TET 64): 16
ATC concentration inhibiting growth at fixed TET (Fig3a source data) ([4]; TET 128): 8
ATC concentration inhibiting growth at fixed TET (Fig3a source data) ([4]; TET 256): 0
ATC concentration inhibiting growth at fixed TET (Fig3a source data) ([5]; TET 0, panel concentrations in μg/mL per Supp. Data 3): 4
ATC concentration inhibiting growth at fixed TET (Fig3a source data) ([5]; TET 1, panel concentrations in μg/mL per Supp. Data 3): 0
ATC concentration inhibiting growth at fixed TET (Fig3a source data) ([6]; TET 0): 8
ATC concentration inhibiting growth at fixed TET (Fig3a source data) ([6]; TET 1): 8
ATC concentration inhibiting growth at fixed TET (Fig3a source data) ([6]; TET 2): 4
ATC concentration inhibiting growth at fixed TET (Fig3a source data) ([6]; TET 4): 4
ATC concentration inhibiting growth at fixed TET (Fig3a source data) ([6]; TET 8): 2
ATC concentration inhibiting growth at fixed TET (Fig3a source data) ([6]; TET 16): 0.5
ATC concentration inhibiting growth at fixed TET (Fig3a source data) ([6]; TET 32): 0
factor by which apparent kcat is lower than for tetracycline antibiotic substrates (Tet(X6) [7]; Tet(X6)): ≤ 7
Slope (initial velocity of substrate degradation) (Tet(X6) [7]; [Sub] 1.94805 μM): 0.0038 and 0.0045 and 0.003
Slope (initial velocity of substrate degradation) (Tet(X6) [7]; [Sub] 3.8961 μM): 0.0098 and 0.0073 and 0.0072
Slope (initial velocity of substrate degradation) (Tet(X6) [7]; [Sub] 6.16883 μM): 0.0097 and 0.0093 and 0.009
Slope (initial velocity of substrate degradation) (Tet(X6) [7]; [Sub] 8.11688 μM): 0.0054 and 0.0074 and 0.0086
Slope (initial velocity of substrate degradation) (Tet(X6) [7]; [Sub] 20.1299 μM): 0.0109 and 0.0073 and 0.0099
Slope (initial velocity of substrate degradation) (Tet(X6) [7]; [Sub] 29.8701 μM): 0.0108 and 0.0104 and 0.0106
Michaelis-menten nonlinear fit, best-fit Vmax (Tet(X6) [7]; supplementary source data, Tet(X6) 0.4 µM): 0.01106
IC50 (Tet(X6) [8]; IC50, aTC inhibition of ERA degradation, substrate ERA): 9 ± 1 µM
IC50 (Tet(X6) [8]; IC50, aTC inhibition of OMA degradation, substrate OMA): 12 ± 4 µM
IC50 (Tet(X6) [8]; IC50, aTC inhibition of TIG degradation, substrate TIG): 2.2 ± 0.2 µM
Slope (velocity of substrate degradation in presence of aTC) (Tet(X6) [8]; substrate Erav, log[aTC] μM 0.81): 0.0443 and 0.0431 and 0.045
Slope (velocity of substrate degradation in presence of aTC) (Tet(X6) [8]; substrate Erav, log[aTC] μM 1.41): 0.0266 and 0.0254 and 0.0225
Slope (velocity of substrate degradation in presence of aTC) (Tet(X6) [8]; substrate Erav, log[aTC] μM 1.72): 0.0176 and 0.0178 and 0.0199
Slope (velocity of substrate degradation in presence of aTC) (Tet(X6) [8]; substrate Erav, log[aTC] μM 2.07): 0.0149 and 0.0154 and 0.0125
Slope (velocity of substrate degradation in presence of aTC) (Tet(X6) [8]; substrate Erav, log[aTC] μM 2.16): 0.007 and 0.0075 and 0.0083
Slope (velocity of substrate degradation in presence of aTC) (Tet(X6) [8]; substrate Omad, log[aTC] μM 0.81): 0.0132 and 0.0149 and 0.0223
Slope (velocity of substrate degradation in presence of aTC) (Tet(X6) [8]; substrate Omad, log[aTC] μM 1.41): 0.0111 and 0.0097 and 0.0109
Slope (velocity of substrate degradation in presence of aTC) (Tet(X6) [8]; substrate Omad, log[aTC] μM 1.72): 0.0072 and 0.0051 and 0.0089
Slope (velocity of substrate degradation in presence of aTC) (Tet(X6) [8]; substrate Omad, log[aTC] μM 2.16): 0.0042 and 0.007 and 0.0037
Slope (velocity of substrate degradation in presence of aTC) (Tet(X6) [8]; substrate Tig, log[aTC] μM 0.81): 0.0454 and 0.0455 and 0.0453
Slope (velocity of substrate degradation in presence of aTC) (Tet(X6) [8]; substrate Tig, log[aTC] μM 1.41): 0.0221 and 0.024 and 0.0233
Slope (velocity of substrate degradation in presence of aTC) (Tet(X6) [8]; substrate Tig, log[aTC] μM 1.72): 0.0213 and 0.0168 and 0.0171
Slope (velocity of substrate degradation in presence of aTC) (Tet(X6) [8]; substrate Tig, log[aTC] μM 2.07): 0.0168 and 0.0154 and 0.0122
Slope (velocity of substrate degradation in presence of aTC) (Tet(X6) [8]; substrate Tig, log[aTC] μM 2.16): 0.0135 and 0.0131 and 0.0184
degradation observed by optical absorbance (Tet(X6) [9]): time-dependent decrease at 440 nm
Percent Ion Count (relative %) (Tet(X6) [10]; time 0 min): 100%
Percent Ion Count (relative %) (Tet(X6) [10]; time 5 min): 95.7447%
Percent Ion Count (relative %) (Tet(X6) [10]; time 30 min): 80%
Percent Ion Count (relative %) (Tet(X6) [10]; time 60 min): 64.9123%
Percent Ion Count (relative %) (Tet(X6) [10]; time 90 min): 74.5098%
Percent Ion Count (relative %) (Tet(X6) [10]; time 120 min): 75.7895%
